Where two headings read alike, the source gives them in different places.
Columns and labels:
[1] = tested on: JGA (renin-producing JG cells); assay: In vitro microperfused afferent arteriole-glomerulus (JGA) renin release, quinacrine fluorescence confocal imaging; design: species or system rabbit; conditions: for renin release (change in quinacrine fluorescence intensity [F0-F] normalized to baseline [F0]): agent alone in afferent arteriole perfusate, within 30 minutes, glucose 25.5 mM, equimolar mannitol, α-ketoglutarate 5 mM, otherwise normal glucose 5.5 mM; for effect on high glucose level-induced renin release and afferent arteriole diameter increase (FIG. 1C): high glucose 25.5 mM; for EC50: dose-response, FIG. 2C
Experimental: (A and B) Real-time confocal fluorescence imaging of renin content (quinacrine, light gray) and vascular diameter (cell membranes are labeled with R-18, dark gray) in the in vitro microperfused terminal afferent arteriole (AA) with attached glomerulus (G) freshly isolated from rabbit kidney. […] Scale bar: 20 μm.
(A) Overview of the TCA cycle and sites of inhibition with fluorocitrate (F: 100 μM: blocks aconitase in step 2) and malonate (MAL; 1 mM; blocks succinate dehydrogenase in step 6).
A superficial afferent arteriole with its glomerulus was microdissected from freshly harvested kidney slices. The afferent arteriole was cannulated and perfused using a method similar to those described previously (37). Briefly, dissection media were prepared from DMEM mixture F-12 (Sigma-Aldrich). Fetal bovine serum (Hyclone) was added at a final concentration of 3%. Vessel perfusion and bath fluid was a modified Krebs-Ringer-HCO3 buffer containing 115 mM NaCl, 25 mM NaHCO3, 0.96 mM NaH2PO4, 0.24 mM Na2HPO4, 5 mM KCl, 1.2 mM MgSO4, 2 mM CaCl2, 5.5 mM d-glucose and 100 μM l-arginine. The solutions were aerated with 95% O2 and 5% CO2 for 45 minutes, and their pH was adjusted to 7.4. Each preparation was transferred to a thermoregulated Lucite chamber mounted on the Leica inverted microscope. The preparation was kept in the dissection solution, and also, temperature was kept at 4° C. until cannulation of the arteriole was completed and then was gradually raised to 37° C. for the remainder of the experiment. In some experiments, the endothelium was mechanically removed from the vessel wall with the help of the perfusion pipette and by perfusing the control solution under the endothelium (between the endothelium and smooth muscle). […] The bath was continuously aerated with 95% O2 and 5% CO2. The acidotropic fluorophore quinacrine (Sigma-Aldrich), which is an intravital fluorescent dye selective for dense-core secretory granules, was used for labeling the renin granules (12, 13, 15). The membrane staining octadecyl rhodamine B chloride R18 and the nuclear stain Hoechst 33342 were used to visualize the glomerulus with its attached afferent arteriole. For ratiometric Ca2+ imaging, the fluo-4/fura red pair was used and calibrated as described before (37). DAF-FM was used to monitor changes in NO production as described (38). All fluorophores were from Invitrogen.

GENCs [2] = assay: GENC [Ca2+]i, fura-2 spectrofluorometry; assay type: cell-based, mouse; conditions: for GENC intracellular Ca2+ [Ca2+]i level: high glucose 25.5 mM, succinate 5 mM, malonate 1 mM, fluorocitrate 100 p.M, normal glucose baseline 133±14 nM
vascular endothelium = assay: Endothelial [Ca2+]i (fluo-4/fura red) and NO production (DAF-FM) in microperfused afferent arteriole-glomerulus; design: species or system mouse; conditions: glucose 5.5 to 25.5 mM or succinate 5 mM in arteriolar perfusate
Experimental: FIG. 6: GPR91 signaling in the vascular endothelium. […] Scale bar: 20 μm. […] KO (^−/−); n=6 each. […] A superficial afferent arteriole with its glomerulus was microdissected from freshly harvested kidney slices. The afferent arteriole was cannulated and perfused using a method similar to those described previously (37). Briefly, dissection media were prepared from DMEM mixture F-12 (Sigma-Aldrich). […] Vessel perfusion and bath fluid was a modified Krebs-Ringer-HCO3 buffer containing 115 mM NaCl, 25 mM NaHCO3, 0.96 mM NaH2PO4, 0.24 mM Na2HPO4, 5 mM KCl, 1.2 mM MgSO4, 2 mM CaCl2, 5.5 mM d-glucose and 100 μM l-arginine. […] Each preparation was transferred to a thermoregulated Lucite chamber mounted on the Leica inverted microscope. The preparation was kept in the dissection solution, and also, temperature was kept at 4° C. until cannulation of the arteriole was completed and then was gradually raised to 37° C. for the remainder of the experiment. In some experiments, the endothelium was mechanically removed from the vessel wall with the help of the perfusion pipette and by perfusing the control solution under the endothelium (between the endothelium and smooth muscle). […] The acidotropic fluorophore quinacrine (Sigma-Aldrich), which is an intravital fluorescent dye selective for dense-core secretory granules, was used for labeling the renin granules (12, 13, 15). […]

GENCs [3] = conditions: read-out: EC50, PGE2 release from GENCs; dose-response, FIG. 6D
Excerpt: Specially engineered biosensor cells, HEK293 cells, expressing the Ca^2+-coupled PGE2 receptor EP1 were loaded with fluo-4 and positioned next to GENCs in culture. […] Normalized changes in HEK293-EP1 biosensor cell fluo-4 intensity are shown and served as an index of PGE2 release. n=6 for each dose.

VSMCs = conditions: saturating doses of succinate
Excerpt: (§1) FIG. 5: Localization of GPR91 in GENCs. […] C, control mix with no cDNA; WK, whole kidney from WT GPR91^+/+ or KO GPR91^−/− mice. […] JGC, renin-producing JG cells. (B-E) Localization of GPR91 protein in rat kidney with immunohistochemistry. […] One region of the glomerulus (indicated by a rectangle) is magnified in C and D for high-resolution colocalization studies. […] DIC background is merged with fluorescence to show glomerular morphology. (E) Negative control using no GPR91 primary antibody. Nuclei are medium gray. Scale bar: 10 μm (B-E).

HEK cells = conditions: saturating doses of succinate
Excerpt: as §1

JG cells = conditions: saturating doses of succinate
Excerpt: as §1

[4] = succinate 5 mM, malonate 1 mM, fluorocitrate 100 μM
[5] = L-NAME 1 mM, indomethacin 50 μM
[6] = agent combined with high glucose 25.5 mM, succinate 5 mM, malonate 1 mM, fluorocitrate 100 μM, L-NAME 1 mM, indomethacin 50 μM

SMILES	renin release (change in quinacrine fluorescence intensity [F0-F] normalized to baseline [F0]) [1, 4]	renin release (change in quinacrine fluorescence intensity normalized to baseline) [1, 6]	GENC intracellular Ca2+ [Ca2+]i level (GENCs [2])	further results
O=C(O)CCC(=O)C(=O)O [α-ketoglutarate]	no effect	–	–	–
COC(=O)[C@@H](N)CCCNC(=N)N[N+](=O)[O-] [L-NAME]	–	14±6 Δ%	–	effect on high glucose level-induced renin release and afferent arteriole diameter increase (FIG. 1C) [1, 5]: inhibited the effects of high glucose level
COc1ccc2c(c1)c(CC(=O)O)c(C)n2C(=O)c1ccc(Cl)cc1 [indomethacin]	–	13±2 Δ%	–	effect on high glucose level-induced renin release and afferent arteriole diameter increase (FIG. 1C) [1, 5]: inhibited the effects of high glucose level
O=C(O)CCC(=O)O [succinate]	73±2 Δ%	56±3 Δ%	549 ± 29 nM	[Ca2+]i response in GENCs with GPR91 silenced (GENCs [2]; GPR91 siRNA): no [Ca2+]i response; EC50 (GENCs [2]; succinate added to the superfusate, FIG. 5G, read-out: EC50, GENC Ca2+ signal): 69 µM; endothelial NO production (vascular endothelium): significant elevations; endothelial [Ca2+]i (vascular endothelium): significant elevations; EC50 (GENCs [3]): 214 µM; EC50 [1]: 335 µM; [Ca2+]i elevation (VSMCs): did not cause [Ca2+]i elevations; [Ca2+]i elevation (HEK cells): did not cause [Ca2+]i elevations; [Ca2+]i elevation (JG cells): did not cause [Ca2+]i elevations
O=C(O)CC(O)(C(=O)O)C(F)C(=O)O (centres unmarked) [fluorocitrate]	11±2 Δ%	16±2 Δ%	143 ± 11 nM	–
OC[C@@H](O)[C@@H](O)[C@H](O)[C@H](O)CO [mannitol]	19±4 Δ%	–	–	–
O=C(O)CC(=O)O [malonate]	54±7 Δ%	77±2 Δ%	377 ± 22 nM	EC50 [1]: 367 µM; renin release (change in quinacrine fluorescence intensity normalized to baseline) ([1]; malonate 1 mM plus succinate 5 mM): 83±4 Δ%

— patent US8652771B2, “Measurement of succinate in urine samples as a biomarker of kidney damage in diabetic subjects” (University of Souther California, priority 2008, dated 2014)
